Reference: ChEMBL document CHEMBL3745645, “Synthesis, in vitro antitumor activity, dihydrofolate reductase inhibition, DNA intercalation and structure-activity relationship studies of 1,3,5-triazine analogues” (Bioorg Med Chem Lett, 2016)
Activity calls are given as the source filed them. No cut-off for these calls is given here.

Legend:
Format in all cases: functional
HT-29 = assay: Cytotoxicity against human HT-29 cells at 10 uM after 48 hrs by SRB assay; conditions: HT-29, 48 h, read-out: GI
RXF 393 = assay: Cytotoxicity against human RXF393 cells at 10 uM after 48 hrs by SRB assay
OVCAR-5 = assay: Cytotoxicity against human OVCAR5 cells at 10 uM after 48 hrs by SRB assay
HCC 2998 = assay: Cytotoxicity against human HCC2998 cells at 10 uM after 48 hrs by SRB assay
UACC-257 = assay: Cytotoxicity against human UACC257 cells at 10 uM after 48 hrs by SRB assay
A549 = assay: Cytotoxicity against human A549 cells at 10 uM after 48 hrs by SRB assay; conditions: A549, 48 h, read-out: GI
[1] = Cytotoxicity against human OVCAR4 cells at 10 uM after 48 hrs by SRB assay; conditions: OVCAR-4, 48 h, read-out: GI
[2] = Cytotoxicity against human DU145 cells at 10 uM after 48 hrs by SRB assay; conditions: DU-145, 48 h, read-out: GI
NCI-H522 = assay: Cytotoxicity against human NCI-H522 cells at 10 uM after 48 hrs by SRB assay; conditions: NCI-H522, 48 h, read-out: GI
K562 = assay: Cytotoxicity against human K562 cells at 10 uM after 48 hrs by SRB assay; conditions: K562, 48 h, read-out: GI
U-251 = assay: Cytotoxicity against human U251 cells at 10 uM after 48 hrs by SRB assay; conditions: U-251, 48 h, read-out: GI
SW-620 = assay: Cytotoxicity against human SW620 cells at 10 uM after 48 hrs by SRB assay
NCI-H226 = assay: Cytotoxicity against human NCI-H226 cells at 10 uM after 48 hrs by SRB assay; conditions: NCI-H226, 48 h, read-out: GI
CCRF-CEM = assay: Cytotoxicity against human CCRF-CEM cells at 10 uM after 48 hrs by SRB assay; conditions: read-out: GI
KM12 = assay: Cytotoxicity against human KM12 cells at 10 uM after 48 hrs by SRB assay; conditions: KM12, 48 h, read-out: GI
[3] = Cytotoxicity against human RPMI8226 cells at 10 uM after 48 hrs by SRB assay; conditions: RPMI-8226, 48 h, read-out: GI
[4] = Cytotoxicity against human SKOV3 cells at 10 uM after 48 hrs by SRB assay; conditions: SK-OV-3, 48 h, read-out: GI
BT-549 = assay: Cytotoxicity against human BT549 cells at 10 uM after 48 hrs by SRB assay
SN12C = assay: Cytotoxicity against human SN12C cells at 10 uM after 48 hrs by SRB assay; conditions: read-out: GI
[5] = Cytotoxicity against human HCT116 cells at 10 uM after 48 hrs by SRB assay; conditions: HCT-116, 48 h, read-out: GI
[6] = Cytotoxicity against human LOXIMVI cells at 10 uM after 48 hrs by SRB assay; conditions: LOX IMVI, read-out: GI
[7] = Cytotoxicity against human UO31 cells at 10 uM after 48 hrs by SRB assay; conditions: UO-31, 48 h, read-out: GI
[8] = Cytotoxicity against human OVCAR3 cells at 10 uM after 48 hrs by SRB assay; conditions: OVCAR-3, 48 h, read-out: GI
[9] = Cytotoxicity against human HOP92 cells at 10 uM after 48 hrs by SRB assay; conditions: HOP-92, 48 h, read-out: GI
NCI-H460 = assay: Cytotoxicity against human NCI-H460 cells at 10 uM after 48 hrs by SRB assay; conditions: NCI-H460, 48 h, read-out: GI
TK-10 = assay: Cytotoxicity against human TK10 cells at 10 uM after 48 hrs by SRB assay
786-0 = assay: Cytotoxicity against human 786-0 cells at 10 uM after 48 hrs by SRB assay
[10] = Cytotoxicity against human SNB19 cells at 10 uM after 48 hrs by SRB assay; conditions: SNB-19, 48 h, read-out: GI
MCF7 = assay: Cytotoxicity against human MCF7 cells at 10 uM after 48 hrs by SRB assay; conditions: MCF7, 48 h, read-out: GI
ACHN = assay: Cytotoxicity against human ACHN cells at 10 uM after 48 hrs by SRB assay; conditions: read-out: GI
[11] = Cytotoxicity against human MOLT4 cells at 10 uM after 48 hrs by SRB assay; conditions: MOLT-4, 48 h, read-out: GI
M14 = assay: Cytotoxicity against human M14 cells at 10 uM after 48 hrs by SRB assay; conditions: M14, 48 h, read-out: GI
SK-MEL-5 = assay: Cytotoxicity against human SK-MEL-5 cells at 10 uM after 48 hrs by SRB assay; conditions: SK-MEL-5, 48 h, read-out: GI
NCI-H322M = assay: Cytotoxicity against human NCI-H322M cells at 10 uM after 48 hrs by SRB assay; conditions: read-out: GI
[12] = Cytotoxicity against human NCI-ADR-RES cells at 10 uM after 48 hrs by SRB assay; conditions: read-out: GI
MDA-MB-435 = assay: Cytotoxicity against human MDA-MB-435 cells at 10 uM after 48 hrs by SRB assay; conditions: MDA-MB-435, 48 h, read-out: GI
A498 = assay: Cytotoxicity against human A498 cells at 10 uM after 48 hrs by SRB assay; conditions: A498, 48 h, read-out: GI
[13] = Cytotoxicity against human IGROV1 cells at 10 uM after 48 hrs by SRB assay; conditions: IGROV-1, 48 h, read-out: GI
[14] = Cytotoxicity against human HCT15 cells at 10 uM after 48 hrs by SRB assay; conditions: HCT-15, 48 h, read-out: GI
CAKI-1 = assay: Cytotoxicity against human Caki1 cells at 10 uM after 48 hrs by SRB assay
MDA-MB-231 = assay: Cytotoxicity against human MDA-MB-231 cells at 10 uM after 48 hrs by SRB assay; conditions: MDA-MB-231, 48 h, read-out: GI
[15] = Cytotoxicity against human COLO205 cells at 10 uM after 48 hrs by SRB assay; conditions: COLO 205, 48 h, read-out: GI
[16] = Cytotoxicity against human SF268 cells at 10 uM after 48 hrs by SRB assay; conditions: SF-268, 48 h, read-out: GI
[17] = Cytotoxicity against human SF295 cells at 10 uM after 48 hrs by SRB assay; conditions: SF-295, 48 h, read-out: GI
[18] = Cytotoxicity against human OVCAR8 cells at 10 uM after 48 hrs by SRB assay; conditions: OVCAR-8, 48 h, read-out: GI
SF-539 = assay: Cytotoxicity against human SF539 cells at 10 uM after 48 hrs by SRB assay
[19] = Cytotoxicity against human SNB75 cells at 10 uM after 48 hrs by SRB assay; conditions: SNB-75, 48 h, read-out: GI
Malme-3M = assay: Cytotoxicity against human MALME-3M cells at 10 uM after 48 hrs by SRB assay; conditions: read-out: GI
[20] = Cytotoxicity against human HOP62 cells at 10 uM after 48 hrs by SRB assay; conditions: HOP-62, 48 h, read-out: GI
T47D = assay: Cytotoxicity against human T47D cells at 10 uM after 48 hrs by SRB assay; conditions: read-out: GI
MDA-MB-468 = assay: Cytotoxicity against human MDA-MB-468 cells at 10 uM after 48 hrs by SRB assay
SK-MEL-28 = assay: Cytotoxicity against human SK-MEL-28 cells at 10 uM after 48 hrs by SRB assay
[21] = Cytotoxicity against human Hs 578T cells at 10 uM after 48 hrs by SRB assay; conditions: read-out: GI
SK-MEL-2 = assay: Cytotoxicity against human SK-MEL-2 cells at 10 uM after 48 hrs by SRB assay
[22] = Cytotoxicity against human HL-60(TB) cells at 10 uM after 48 hrs by SRB assay; conditions: HL-60, 48 h, read-out: GI
SR = assay: Cytotoxicity against human SR cells at 10 uM after 48 hrs by SRB assay; conditions: read-out: GI

Cc1nc2cc(Nc3nc(Nc4ccc(F)cc4)nc(Nc4ncccn4)n3)ccc2n1Cc1ccccc1
inhibition of growth at 10 µM (HT-29): 14.8% | growth inhibition (GI) (RXF 393): inactive | growth inhibition (GI) (OVCAR-5): inactive | growth inhibition (GI) (HCC 2998): inactive | growth inhibition (GI) (UACC-257): inactive | inhibition of growth at 10 µM (A549): 17.8% | inhibition of growth at 10 µM [1]: 20.2% | inhibition of growth at 10 µM [2]: 4.12% | inhibition of growth at 10 µM (NCI-H522): 22.5% | inhibition of growth at 10 µM (K562): 41.3% | inhibition of growth at 10 µM (U-251): 13.2% | growth inhibition (GI) (SW-620): inactive | inhibition of growth at 10 µM (NCI-H226): 11.5% | inhibition of growth at 10 µM (CCRF-CEM): 63.2% | inhibition of growth at 10 µM (KM12): 11.6% | inhibition of growth at 10 µM [3]: 57.4% | inhibition of growth at 10 µM [4]: 2.64% | growth inhibition (GI) (BT-549): inactive | inhibition of growth at 10 µM (SN12C): 8.42% | inhibition of growth at 10 µM [5]: 15.8% | inhibition of growth at 10 µM [6]: 3.01% | inhibition of growth at 10 µM [7]: 27% | inhibition of growth at 10 µM [8]: 9.64% | inhibition of growth at 10 µM [9]: 18.4% | inhibition of growth at 10 µM (NCI-H460): 5.2% | growth inhibition (GI) (TK-10): inactive | growth inhibition (GI) (786-0): inactive | inhibition of growth at 10 µM [10]: 7.38% | inhibition of growth at 10 µM (MCF7): 20.1% | inhibition of growth at 10 µM (ACHN): 1.6% | inhibition of growth at 10 µM [11]: 44.6% | inhibition of growth at 10 µM (M14): 5.65% | inhibition of growth at 10 µM (SK-MEL-5): 6.35% | inhibition of growth at 10 µM (NCI-H322M): 5.47% | inhibition of growth at 10 µM [12]: 10.5% | inhibition of growth at 10 µM (MDA-MB-435): 9.24% | inhibition of growth at 10 µM (A498): 11.5% | inhibition of growth at 10 µM [13]: 24% | inhibition of growth at 10 µM [14]: 12.7% | growth inhibition (GI) (CAKI-1): inactive | inhibition of growth at 10 µM (MDA-MB-231): 7.37% | inhibition of growth at 10 µM [15]: 10.5% | inhibition of growth at 10 µM [16]: 11.2% | inhibition of growth at 10 µM [17]: 15.6% | inhibition of growth at 10 µM [18]: 8.83% | growth inhibition (GI) (SF-539): inactive | inhibition of growth at 10 µM [19]: 15.6% | inhibition of growth at 10 µM (Malme-3M): 7.94% | inhibition of growth at 10 µM [20]: 2.38% | inhibition of growth at 10 µM (T47D): 25.1% | growth inhibition (GI) (MDA-MB-468): inactive | growth inhibition (GI) (SK-MEL-28): inactive | inhibition of growth at 10 µM [21]: 20.9% | growth inhibition (GI) (SK-MEL-2): inactive | inhibition of growth at 10 µM [22]: 30.1% | inhibition of growth at 10 µM (SR): 51.6%
